Results reported in publication PMC9764288, “Computation-Aided Engineering of Cytochrome P450 for the Production of Pravastatin” (ACS Catalysis, 2022).

Legend:
[1] = target: T1, CYP105AS1 (Amycolatopsis orientalis, UniProt W5VH56); experiment: UV-vis spectral (type I Soret shift) titration of 3-8 uM purified P450 with compactin from DMSO stocks at 25 °C in 50 mM potassium phosphate, 300 mM KCl, 10% glycerol, pH 8.0; hyperbolic or Morrison tight-binding fit.
T1 construct: N-terminal polyhistidine tag, pBAD vector, expressed in E. coli Top10
T1 sequence (W5VH56 1-401): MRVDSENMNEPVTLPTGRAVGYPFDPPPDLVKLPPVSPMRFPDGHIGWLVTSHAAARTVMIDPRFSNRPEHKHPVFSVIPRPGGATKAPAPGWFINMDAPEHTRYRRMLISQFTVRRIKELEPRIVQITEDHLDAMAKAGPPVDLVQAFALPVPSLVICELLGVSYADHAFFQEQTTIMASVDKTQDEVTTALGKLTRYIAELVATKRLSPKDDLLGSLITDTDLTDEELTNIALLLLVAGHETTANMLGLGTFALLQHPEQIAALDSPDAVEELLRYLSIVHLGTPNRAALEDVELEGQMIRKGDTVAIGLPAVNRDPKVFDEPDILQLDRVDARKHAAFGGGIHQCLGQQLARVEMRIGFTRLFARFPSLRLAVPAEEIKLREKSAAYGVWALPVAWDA
Method: (§1) Absorbance spectra (300–800 nm) of P450 variants were measured on a Cary 60 UV–vis spectrophotometer at 25 °C using 3–8 μM protein in buffer A. The pyridine hemochromogen method was used to quantify CYP105AS1 P450 variant heme concentrations and to determine an extinction coefficient at the heme Soret maximum for each variant.[89] For titration, compactin (0.05–0.5 μL) was added from 5 to 50 mM stock solutions in DMSO. The overall absorbance change (ΔAmax) was calculated as Apeak (absorbance maximum) minus Atrough (absorbance minimum) and plotted against the substrate concentration. Data were fitted according to a standard hyperbolic binding equation or a Morrison equation for tight-binding to determine dissociation constants (Kd).[90],[91]
(§2) UV–vis substrate binding studies were conducted to investigate the effect of mutations on compactin binding. […] Probably, the bulky aromatic side chain of the introduced Phe95 residue influenced the binding of compactin, which allowed elimination of the proximal water ligand and full conversion to the high-spin state upon binding of this substrate.

[2] = target: T2, P450pra (Amycolatopsis orientalis, UniProt W5VH56, I95T/Q127R/A180V/L236I/A265N); type: binding
T2 construct: N-terminal polyhistidine tag, expressed in E. coli; directed evolution variant
T2 sequence (W5VH56 entry or part of it I95T/Q127R/A180V/L236I/A265N): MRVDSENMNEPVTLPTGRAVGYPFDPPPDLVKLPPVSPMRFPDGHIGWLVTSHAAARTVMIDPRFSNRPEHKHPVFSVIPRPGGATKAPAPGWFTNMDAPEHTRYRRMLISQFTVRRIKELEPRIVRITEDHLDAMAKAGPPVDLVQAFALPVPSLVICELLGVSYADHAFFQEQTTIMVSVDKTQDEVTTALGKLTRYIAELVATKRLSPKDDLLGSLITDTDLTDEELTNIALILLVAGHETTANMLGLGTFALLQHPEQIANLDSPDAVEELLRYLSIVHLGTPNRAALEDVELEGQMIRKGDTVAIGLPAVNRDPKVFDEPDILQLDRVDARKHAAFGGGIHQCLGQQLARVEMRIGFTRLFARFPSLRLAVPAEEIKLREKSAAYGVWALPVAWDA
Method: as §1, §2

[3] = target: T3, P450pra + F76N (Amycolatopsis orientalis, UniProt W5VH56, F76N/I95T/Q127R/A180V/L236I/A265N); type: binding
T3 construct: N-terminal polyhistidine tag, expressed in E. coli
T3 sequence (W5VH56 entry or part of it F76N/I95T/Q127R/A180V/L236I/A265N): as the sequence (W5VH56 entry or part of it I95T/Q127R/A180V/L236I/A265N) above, with F76N counted along it
Method: as §1, §2

[4] = target: T4, P450pra + P80G (Amycolatopsis orientalis, UniProt W5VH56, P80G/I95T/Q127R/A180V/L236I/A265N); type: binding
T4 construct: N-terminal polyhistidine tag, expressed in E. coli
T4 sequence (W5VH56 entry or part of it P80G/I95T/Q127R/A180V/L236I/A265N): as the sequence (W5VH56 entry or part of it I95T/Q127R/A180V/L236I/A265N) above, with P80G counted along it
Method: as §1, §2

[5] = target: T5, P450pra + T286I (Amycolatopsis orientalis, UniProt W5VH56, I95T/Q127R/A180V/L236I/A265N/T286I); type: binding
T5 construct: N-terminal polyhistidine tag, expressed in E. coli
T5 sequence (W5VH56 entry or part of it I95T/Q127R/A180V/L236I/A265N/T286I): as the sequence (W5VH56 entry or part of it I95T/Q127R/A180V/L236I/A265N) above, with T286I counted along it
Method: as §1, §2

[6] = target: T6, P450pra + T95F (Amycolatopsis orientalis, UniProt W5VH56, I95F/Q127R/A180V/L236I/A265N); type: binding
T6 construct: N-terminal polyhistidine tag, expressed in E. coli
T6 sequence (W5VH56 entry or part of it I95F/Q127R/A180V/L236I/A265N): as the sequence (W5VH56 entry or part of it I95T/Q127R/A180V/L236I/A265N) above, with T95F counted along it
Method: as §1, §2

[7] = target: T7, P450pra + T95F/V180M (=P450pra100) (Amycolatopsis orientalis, UniProt W5VH56, I95F/Q127R/A180M/L236I/A265N); type: binding
T7 construct: N-terminal polyhistidine tag, expressed in E. coli
T7 sequence (W5VH56 entry or part of it I95F/Q127R/A180M/L236I/A265N): as the sequence (W5VH56 entry or part of it I95T/Q127R/A180V/L236I/A265N) above, with T95F, V180M counted along it
Method: as §1, §2

[8] = target: T8, P450pra + T95W (Amycolatopsis orientalis, UniProt W5VH56, I95W/Q127R/A180V/L236I/A265N); type: binding
T8 construct: N-terminal polyhistidine tag, expressed in E. coli
T8 sequence (W5VH56 entry or part of it I95W/Q127R/A180V/L236I/A265N): as the sequence (W5VH56 entry or part of it I95T/Q127R/A180V/L236I/A265N) above, with T95W counted along it
Method: as §1, §2

[9] = target: T9, P450pra +V180I (Amycolatopsis orientalis, UniProt W5VH56, I95T/Q127R/A180I/L236I/A265N); type: binding
T9 construct: N-terminal polyhistidine tag, expressed in E. coli
T9 sequence (W5VH56 entry or part of it I95T/Q127R/A180I/L236I/A265N): as the sequence (W5VH56 entry or part of it I95T/Q127R/A180V/L236I/A265N) above, with V180I counted along it
Method: as §1, §2

[10] = target: T10, P450pra +V180M (Amycolatopsis orientalis, UniProt W5VH56, I95T/Q127R/A180M/L236I/A265N); type: binding
T10 construct: N-terminal polyhistidine tag, expressed in E. coli
T10 sequence (W5VH56 entry or part of it I95T/Q127R/A180M/L236I/A265N): as the sequence (W5VH56 entry or part of it I95T/Q127R/A180V/L236I/A265N) above, with V180M counted along it
Method: as §1, §2

[11] = test system: human CYP3A4; set-up: method as in PMID 19530969; conditions: cited from earlier work
[12] = test system: CYP3A5; set-up: method as in PMID 19530969; conditions: cited from earlier work

CC[C@H](C)C(=O)O[C@H]1CCC=C2C=C[C@H](C)[C@H](CC[C@@H]3C[C@@H](O)CC(=O)O3)[C@H]21 [compactin, compactin (mevastatin)]
Kd [1]: 30300 ± 5200 nM | Kd [2]: 770 ± 70 nM | Kd [3]: 4810 ± 250 nM | Kd [4]: 5840 ± 340 nM | Kd [5]: 4930 ± 250 nM | Kd [6]: 250 ± 10 nM | Kd [7]: 130 ± 30 nM | Kd [8]: 3290 ± 30 nM | Kd [9]: 1640 ± 130 nM | Kd [10]: 1340 ± 60 nM

CC[C@H](C)C(=O)O[C@H]1C[C@H](O)C=C2C=C[C@H](C)[C@H](CC[C@@H](O)C[C@@H](O)CC(=O)O)[C@H]21 [pravastatin]
metabolism by human CYP3A4 [11]: not significantly metabolized | metabolism by human CYP3A5 [12]: not significantly metabolized
